Measurements taken from article PMC6273065, “Synthesis, Molecular Modelling and Biological Evaluation of Novel Heterodimeric, Multiple Ligands Targeting Cholinesterases and Amyloid Beta” (Molecules, 2016).
Read-outs that look alike come from different tables or passages of the source. Marks after values point to notes of the source that are not given here.

What was measured:
EqBuChE [1] = biological target: T1, EqBuChE (Equus caballus, UniProt P81908); conditions: % inhibition at 50 μM lower than 50%; cited from earlier work
T1 construct: BuChE from equine serum (EqBuChE, Sigma–Aldrich); purchased Sigma–Aldrich; host or cells: equine serum
T1 sequence (P81908 whole entry): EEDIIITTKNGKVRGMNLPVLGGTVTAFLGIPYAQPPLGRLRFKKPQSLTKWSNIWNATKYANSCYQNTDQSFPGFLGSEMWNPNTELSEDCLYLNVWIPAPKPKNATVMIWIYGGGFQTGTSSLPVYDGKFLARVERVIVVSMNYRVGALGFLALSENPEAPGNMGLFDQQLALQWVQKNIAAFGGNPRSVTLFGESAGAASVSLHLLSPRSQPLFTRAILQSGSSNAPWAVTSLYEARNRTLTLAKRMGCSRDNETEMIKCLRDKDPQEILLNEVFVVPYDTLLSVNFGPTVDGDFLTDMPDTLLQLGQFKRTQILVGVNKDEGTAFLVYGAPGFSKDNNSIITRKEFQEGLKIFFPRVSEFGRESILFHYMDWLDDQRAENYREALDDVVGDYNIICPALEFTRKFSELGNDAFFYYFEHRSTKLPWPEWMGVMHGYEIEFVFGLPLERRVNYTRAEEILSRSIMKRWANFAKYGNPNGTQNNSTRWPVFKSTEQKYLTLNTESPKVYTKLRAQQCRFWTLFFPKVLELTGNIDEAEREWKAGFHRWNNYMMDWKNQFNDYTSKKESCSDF

EeAChE [2] = biological target: T2, EeAChE (Electrophorus electricus, UniProt O42275); conditions: cited from earlier work
T2 construct: purchased Sigma–Aldrich
T2 sequence (O42275 24-633): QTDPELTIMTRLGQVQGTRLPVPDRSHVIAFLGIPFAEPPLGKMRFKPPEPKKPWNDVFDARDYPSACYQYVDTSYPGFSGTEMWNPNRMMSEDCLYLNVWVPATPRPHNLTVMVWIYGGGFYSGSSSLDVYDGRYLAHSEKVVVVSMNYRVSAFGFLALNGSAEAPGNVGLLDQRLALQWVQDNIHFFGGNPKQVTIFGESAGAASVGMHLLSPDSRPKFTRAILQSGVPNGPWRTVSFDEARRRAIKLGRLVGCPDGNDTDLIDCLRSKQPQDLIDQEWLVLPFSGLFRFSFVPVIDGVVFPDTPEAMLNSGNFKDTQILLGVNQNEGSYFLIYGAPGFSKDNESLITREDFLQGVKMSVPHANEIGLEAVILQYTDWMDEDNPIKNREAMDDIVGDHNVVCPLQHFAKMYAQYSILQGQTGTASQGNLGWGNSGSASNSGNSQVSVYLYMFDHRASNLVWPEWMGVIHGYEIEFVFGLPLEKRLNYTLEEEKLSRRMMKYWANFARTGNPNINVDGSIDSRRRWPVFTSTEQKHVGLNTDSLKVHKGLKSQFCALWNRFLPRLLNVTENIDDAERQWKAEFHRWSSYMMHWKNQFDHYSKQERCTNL

Aβ1–42 [3] = biological target: T3, Aβ1–42 (Homo sapiens, UniProt P05067); parameters: method as in PMID 26032855; conditions: 10 µM compound, self-induced; mean ± SD; cited from earlier work
T3 construct: Recombinant human HFIP-pretreated Aβ1–42 peptide; purchased Merck Millipore Lot number 2387442
T3 sequence (P05067 672-713): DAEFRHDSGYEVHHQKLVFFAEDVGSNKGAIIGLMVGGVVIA

Aβ12–23 = conditions: 50 µM compound, self-induced Aβ12–23 aggregation; mean ± SD; cited from earlier work
EeAChE [4] = biological target: T2, EeAChE; test: biochemical; assay type: biochemical
Method: (§1) Ellman’s method was used to determine the activity of the synthesized compounds against AChE from electric eel (Electrophorus electricus, EeAChE) and BuChE from equine serum (EqBuChE).
(§2) All assays were performed in 0.1 M phosphate buffer pH 8.0. The tested compounds or water in a blank sample (25 µL) were incubated with the enzyme (20 µL) for 5 min at 25 °C in buffer (765 µL) prior to starting the reaction. Then, DTNB (20 µL) and ATC (20 µL) were added. […] Each condition was measured in triplicate. The percentages of enzyme inhibition were calculated from the equation 100%—Ai/A0 × 100%, where Ai is the absorbance of a sample with an inhibitor and A0 is the absorbance of a blank sample (100% activity of the enzyme). The IC50 values were calculated using GraphPad Prism 5. Data is expressed as mean ± SEM.

EeAChE [5] = biological target: T2, EeAChE; test: Kinetic characterization of EeAChE inhibition (Lineweaver–Burk, Cornish–Bowden plots); assay type: biochemical; conditions: Lineweaver–Burk and Cornish–Bowden plots, ATC 0.067–0.5 mM
Method: Both types of inhibition were further confirmed by Cornish–Bowden plots (S/V vs. [I]) (A. in Supplementary Materials).
To estimate the type of inhibition of EeAChE, the same experimental protocol as reported above (4.3.1) was performed. Different concentrations of the substrate ATC (0.067–0.5 mM) were used to create Lineweaver-Burk plots by plotting the inverse initial velocity (1/V) as a function of the inverse of the substrate concentration (1/[S]). The stock solution of ATC (0.5 mM in a well) was prepared in water and diluted before use to obtained 0.4, 0.3, 0.2, 0.1and 0.067 mM concentrations of substrate. The double reciprocal plots were assessed by a weighted least square analysis that assumed the variance of V to be a constant percentage of V for the entire data set. Each experiment was performed in triplicate. Then, to confirm the mode of inhibition, Cornish-Bowden plots were obtained by plotting S/V (substrate concentration/velocity ratio) versus the inhibitor concentration [I]. Data analysis was performed with GraphPad Prism 5.

EqBuChE [6] = biological target: T1, EqBuChE; test: biochemical
Method: as §1, §2

[7] = PAMPA-BBB; for Log Pe: 2 h at 37 °C, means of two replicates; for Prediction of BBB penetration: class from log Pe
Method: For anti-Alzheimer drug candidates, the ability to cross the blood–brain barrier and to enter the central nervous system (CNS) is crucial to achieve their pharmacological target and activity.
The BBB-PAMPA Explorer Test System was purchased from pION Inc. The in vitro permeability through BBB-1 lipid membrane was determined for 7 commercial drugs and the tested compounds. The compounds were dissolved in DMSO (10 mM stock solution) and diluted with Prisma HT buffer (5 µL/1 mL). Then, the […] 96-well microplate was filled with solution of the tested compounds in buffer (200 µL/well). The filter membrane in acceptor 96-well microplate was impregnated with BBB-1 lipid solution (5 µL/well) and the acceptor plate was filled with Brain Sink Buffer (200 µL/well). The acceptor plate was carefully placed on the donor plate to form a sandwich that was left undisturbed for 2 h at 37 °C. After incubation, the donor plate was carefully removed. The concentration of compounds in the acceptor, the donor, and the reference wells were measured using EnSpire Multimode Microplate Reader (PerkinElmer).

Aβ1–42 [8] = biological target: T3, Aβ1–42; test: Thioflavin-T fluorometric assay of self-induced Aβ1–42 aggregation; assay type: biochemical; conditions: 10 µM compound, 1.5 µM Aβ1–42; mean ± SD; <10 = defined as not active; read-out: Aβ1–42 Aggreg. % of inhibition
Source text: Mechanisms of Aβ aggregation remain unclear. Besides the self-induced assembly of Aβ, several other factors affect its aggregation, including metal ions, AChE [45], and oxidative stress. Therefore, we evaluated our compounds using the most versatile and commonly used Aβ1–42 aggregation Thioflavin T assay. Seven structurally diverse compounds were selected (one from each subseries) to test their ability to inhibit self-induced Aβ1–42 aggregation.
Thioflavin-T (ThT) fluorometric assay was performed to investigate the effect of the test compounds on the self-aggregation of Aβ1–42. […] Each sample was prepared in quadruplicate, and the DMSO was always at 3%. To quantify amyloid fibril formation, the ThT fluorescence was measured through the bottom of the plate every 180 s at an excitation wavelength of 440 nm and emission wavelength of 490 nm, with the medium continuously shaking between measurements using a 96-well microplate reader (Synergy™ H4, BioTek Instruments, Inc., Winooski, VT, USA). […] The fluorescence intensities at the plateau in the absence and presence of the test compounds were averaged, and the average fluorescence of the corresponding wells at t = 0 h was subtracted.

SMILES | IC50 (EqBuChE [1]) [nM] | IC50 (EeAChE [2]) [nM] | Aβ1–42 Aggreg. % of inhibition (Aβ1–42 [3]) [%] | Aβ12–23 aggregation % of inhibition (Aβ12–23) | IC50 (EeAChE [4]) [nM] | type of EeAChE inhibition (EeAChE [5]) | IC50 (EqBuChE [6]) [nM] | Log Pe [7] | Prediction of BBB penetration [7] | inhibition at 10 µM (Aβ1–42 [8]) [%]
O=C1c2ccccc2S(=O)(=O)N1CCCCCNCc1ccccc1 [Compd. II] | > 50000 | 36 ± 1 | 22.19 ± 16.6 |  |  |  |  |  |  | 
CCN(CC)CCCCCCCCN1C(=O)c2ccccc2C1=O [Compd. I] |  |  |  | 30.10 ± 5.78 ^f % |  |  |  |  |  | 
O=C1c2ccccc2C(=O)N1CCCCCCCN1CCCC1 [Compound 3, 2-(7-(Pyrrolidin-1-yl)heptyl)isoindoline-1,3-dione] |  |  |  |  | 276 ± 3 | mixed type of enzyme inhibition | > 50000 |  |  | 
O=C1c2ccccc2C(=O)N1CCCCCCCCN1CCCC1 [Compound 4, 2-(8-(Pyrrolidin-1-yl)octyl)isoindoline-1,3-dione] |  |  |  |  | 282 ± 11 | mixed type of enzyme inhibition | 3240 ± 141 | –4.0 | CNS+ (CNS+, log Pe > −4.5, high permeability (i.e., can enter the CNS)) | 15.2 ± 3.06
O=C1c2ccccc2C(=O)N1CCCCCCN1CCc2ccccc2C1 [Compound 11, 2-(6-(3,4-dihydroisoquinolin-2(1H)-yl)hexyl)isoindoline-1,3-dione] |  |  |  |  | 387 ± 3 | mixed type of enzyme inhibition | 5120 ± 90 |  |  | 
O=C1c2ccccc2S(=O)(=O)N1CCCCCNCc1cccc(Cl)c1 [Compound 42, 2-(5-(3-chlorobenzylamino)pentyl)benzo[d]isothiazol-3(2H)-one 1,1-dioxide] |  |  |  |  | 70 ± 1 | linear non-competitive type of inhibition | > 50000 | –4.3 | CNS+ (CNS+, log Pe > −4.5, high permeability (i.e., can enter the CNS)) | 16.5 ± 3.01
